The IC50 is the concentration at which inhibition is half-maximal. A high value points to weaker potency. In general, inhibition refers to the change of the read-out against control, counted positive when it falls. A higher inhibition goes with a strong effect. As a reminder, the LD50 is the dose expected to kill half of the subjects tested. A low value points to a more toxic substance. The EC50 is the concentration at which the effect is half-maximal. Low readings indicate an effect from little substance, high ones a need for much substance.

The structures appear in SMILES notation.

Sequence of EGFR (murine) (P00533 whole entry, looked up): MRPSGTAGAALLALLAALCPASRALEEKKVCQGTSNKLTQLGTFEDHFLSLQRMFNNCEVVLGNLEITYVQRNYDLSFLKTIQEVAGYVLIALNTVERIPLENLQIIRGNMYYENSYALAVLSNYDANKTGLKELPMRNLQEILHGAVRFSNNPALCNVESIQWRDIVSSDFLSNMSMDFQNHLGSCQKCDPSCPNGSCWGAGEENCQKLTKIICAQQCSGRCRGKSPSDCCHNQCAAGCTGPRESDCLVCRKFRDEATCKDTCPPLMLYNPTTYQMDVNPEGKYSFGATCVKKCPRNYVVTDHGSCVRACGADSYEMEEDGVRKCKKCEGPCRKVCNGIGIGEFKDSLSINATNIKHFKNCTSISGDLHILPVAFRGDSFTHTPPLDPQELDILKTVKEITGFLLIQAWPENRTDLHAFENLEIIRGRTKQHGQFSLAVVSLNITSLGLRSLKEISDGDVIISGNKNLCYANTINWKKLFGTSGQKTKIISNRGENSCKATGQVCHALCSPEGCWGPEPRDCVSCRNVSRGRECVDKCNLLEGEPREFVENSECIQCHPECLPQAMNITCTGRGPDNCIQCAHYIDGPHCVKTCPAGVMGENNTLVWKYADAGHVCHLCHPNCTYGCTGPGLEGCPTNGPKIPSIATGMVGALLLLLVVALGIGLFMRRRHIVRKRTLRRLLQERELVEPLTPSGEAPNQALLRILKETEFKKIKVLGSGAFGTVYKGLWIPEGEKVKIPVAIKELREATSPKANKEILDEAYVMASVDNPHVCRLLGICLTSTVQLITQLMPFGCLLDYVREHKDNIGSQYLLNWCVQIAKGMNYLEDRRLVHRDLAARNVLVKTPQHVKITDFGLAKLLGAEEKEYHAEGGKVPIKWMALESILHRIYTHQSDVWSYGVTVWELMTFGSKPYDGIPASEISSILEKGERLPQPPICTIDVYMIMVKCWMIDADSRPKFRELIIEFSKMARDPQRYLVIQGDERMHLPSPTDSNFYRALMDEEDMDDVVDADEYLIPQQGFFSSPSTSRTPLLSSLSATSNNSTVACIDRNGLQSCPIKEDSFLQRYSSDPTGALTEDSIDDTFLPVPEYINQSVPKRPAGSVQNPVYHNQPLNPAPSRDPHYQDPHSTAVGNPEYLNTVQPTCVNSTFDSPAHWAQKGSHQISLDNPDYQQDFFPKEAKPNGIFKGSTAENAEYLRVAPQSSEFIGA
Sequence of PIK3CA (human) (P42336 whole entry, looked up): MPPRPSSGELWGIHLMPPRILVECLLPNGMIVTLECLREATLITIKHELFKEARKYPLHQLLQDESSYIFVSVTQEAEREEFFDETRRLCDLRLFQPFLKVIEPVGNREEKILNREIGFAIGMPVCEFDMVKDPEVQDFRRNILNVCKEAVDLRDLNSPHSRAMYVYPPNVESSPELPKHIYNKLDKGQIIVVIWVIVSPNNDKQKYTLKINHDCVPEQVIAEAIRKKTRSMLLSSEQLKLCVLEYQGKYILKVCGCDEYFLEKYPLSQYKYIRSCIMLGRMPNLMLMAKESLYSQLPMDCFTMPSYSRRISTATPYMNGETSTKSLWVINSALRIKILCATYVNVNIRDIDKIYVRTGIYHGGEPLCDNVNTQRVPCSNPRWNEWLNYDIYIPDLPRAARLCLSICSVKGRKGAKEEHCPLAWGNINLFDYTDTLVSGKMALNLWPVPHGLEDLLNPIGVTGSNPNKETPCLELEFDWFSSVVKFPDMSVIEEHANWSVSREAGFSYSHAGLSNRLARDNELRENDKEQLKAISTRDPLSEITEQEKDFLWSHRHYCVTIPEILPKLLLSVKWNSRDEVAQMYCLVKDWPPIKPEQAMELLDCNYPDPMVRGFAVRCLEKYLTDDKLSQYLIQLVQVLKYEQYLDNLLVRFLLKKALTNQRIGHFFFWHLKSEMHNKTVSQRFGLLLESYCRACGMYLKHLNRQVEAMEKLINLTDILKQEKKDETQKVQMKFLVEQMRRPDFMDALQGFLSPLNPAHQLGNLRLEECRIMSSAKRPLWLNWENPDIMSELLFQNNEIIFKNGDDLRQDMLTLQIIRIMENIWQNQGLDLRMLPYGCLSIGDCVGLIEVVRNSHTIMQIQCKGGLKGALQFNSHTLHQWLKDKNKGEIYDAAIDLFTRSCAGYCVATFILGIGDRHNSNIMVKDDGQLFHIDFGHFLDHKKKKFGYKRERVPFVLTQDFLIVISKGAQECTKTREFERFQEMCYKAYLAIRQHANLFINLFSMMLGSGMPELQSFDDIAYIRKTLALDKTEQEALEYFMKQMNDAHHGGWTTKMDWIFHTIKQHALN

The first assay concerns the target EGFR (human) (UniProt P00533).
Assay: not given
The settings on record: kb.
On to `COc1cc2ncnc(Nc3cccc(Cl)c3F)c2cc1OC1CCN(C(=O)OCCN2CCCC2)CC1`, for which the IC50 came to 0.009 µM. As to `COc1cc2ncnc(Nc3ccc(F)c(Cl)c3F)c2cc1OC1CCN(C(=O)OCCN2CCCC2)CC1`, the IC50 was found to be 0.015 µM.

In a further assay the target is EGFR (UniProt P00533).
Sequence of EGFR (P00533 whole entry, looked up): as the sequence (P00533 whole entry, looked up) above
Assay: not given
Conditions: not given
Regarding `COc1cc2ncnc(Nc3ccc4[nH]ccc4c3)c2cc1OC`, the IC50 turned out to be 0.003 µM. On the same count and under the same terms, in the case of `c1ccc2c(Nc3ccc4[nH]ccc4c3)ncnc2c1` it was 0.3 µM.

For `COc1cc2ncnc(Nc3ccc4c(ccn4Cc4ccccc4)c3)c2cc1OC`, the IC50 is 10 µM.

The assay is the same for the next values; noted with them: concentration not given here.
`c1ccc(Cn2ccc3cc(Nc4ncnc5ccccc45)ccc32)cc1` displayed an inhibition of 74%.

In another assay the target is EGFR (UniProt P00533).
Assay: not given
Conditions: not given
The source holds these as a separate data set.
The molecule `Cc1oncc1C(=O)Nc1ccc(C(F)(F)F)cc1` yielded an IC50 of 30 µM. With `Cc1cccc(N(C)c2ncnc3[nH]ncc23)c1`, the IC50 was over 50 µM. As to `NC(=O)c1cc2ccc(O)c(O)c2cn1`, the IC50 is over 100 µM.

A further assay concerns the target CDK2 (human) (UniProt P24941). Kind of assay: Enzyme Assay.
Conditions: not given
`CC[C@H](CO)Nc1cc(NCc2ccc(-c3ccccn3)cc2)c2ncn(C(C)C)c2n1` returned an IC50 of 0.25 µM. Still for that read-out and setting: in the case of `CC[C@@H](CO)Nc1cc(NCc2ccc(-c3ccccn3)cc2)c2ncn(C(C)C)c2n1` it was 0.1 µM; in that of `CC[C@@H](CO)Nc1cc(NCc2ccccc2)c2ncn(C(C)C)c2n1`, 0.31 µM; in that of `CC[C@H](CO)Nc1cc(NCc2ccccc2)c2ncn(C(C)C)c2n1`, 0.18 µM.

A further assay has as its target EGFR (Balb/c mice) (UniProt P00533).
Assay: not given
Conditions: not given
As for `Cc1ccc2ncnc(Nc3cccc(C(F)(F)F)c3)c2c1`, the LD50 was over 400 mg/kg. Still for that read-out and setting: in the case of `COc1cc2ncnc(Nc3cccc(C#N)c3)c2cc1OC` it was over 153 mg/kg.

The same assay, now with this note: dose or concentration not given here.
The molecule `COc1cc2ncnc(Nc3cccc(C(F)(F)F)c3)c2cc1OC` showed a toxicity of 40%.

The next assay addresses PIK3CA (human) (UniProt P42336). Nature of the assay: Antiproliferation of NZOV9 Cell Line Using Thymidine Depletion Assay.
Conditions: not given
Consider `Cc1ccc([N+](=O)[O-])cc1S(=O)(=O)N(C)N=Cc1cn(C)c2ccccc12`, for which the half-maximal inhibitory concentration (IC50) is over 20 µM.

In a further assay the target is MAPK14 (UniProt Q16539). Kind of assay: p38-alpha Inhibition.
Sequence of MAPK14 (Q16539 whole entry, looked up): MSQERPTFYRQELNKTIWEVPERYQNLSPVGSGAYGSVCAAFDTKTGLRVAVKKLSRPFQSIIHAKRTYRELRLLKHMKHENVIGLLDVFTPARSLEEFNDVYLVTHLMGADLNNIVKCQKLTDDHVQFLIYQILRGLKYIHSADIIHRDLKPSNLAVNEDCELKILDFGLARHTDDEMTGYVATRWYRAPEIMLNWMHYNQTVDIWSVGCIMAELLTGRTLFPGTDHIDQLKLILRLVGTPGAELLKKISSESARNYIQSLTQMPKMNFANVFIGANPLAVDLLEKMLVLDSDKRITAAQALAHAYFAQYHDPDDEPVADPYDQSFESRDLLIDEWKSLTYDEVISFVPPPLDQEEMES
Conditions: not given
`ON1=CC=C(C=C1)c2[nH]c3cccnc3c2c4ccc(F)cc4` had an IC50 of 2.5 µM. Still for that read-out and setting: in the case of `CCOCn1c(-c2ccncc2)c(-c2ccc(F)cc2)c2ncccc21` it was 0.021 µM. The same measure, in the same setting: in the case of `ON1=CC=Cc2[nH]c(c3ccncc3)c(c4ccc(F)cc4)c12` it was 6.7 µM.

As to `COn1c(-c2ccncc2)c(-c2ccc(F)cc2)c2ncccc21`, the IC50 turned out to be 0.068 µM.

The next assay addresses EGFR (human) (UniProt P00533).
Assay: not given
The note with it: A431.
Regarding `C[C@@H](Nc1ncnc2ccccc12)c1ccccc1`, the IC50 is 0.086 µM.

`C[C@H](Nc1[nH]cnc2c3ccccc3nc1-2)c1ccccc1` displayed an IC50 of over 100 µM. As for `C[C@H](Nc1ncnc2ccccc12)c1ccccc1`, the IC50 was over 10 µM. Same read-out and setting: in the case of `C[C@@H](Nc1nc[nH]c2nc(-c3ccccc3)cc1-2)c1ccccc1` it was 0.01 to 0.05 µM.

Another assay has as its target EGFR (murine) (UniProt P00533).
Assay: not given
The settings on record: nih3t3.
Molecule `Cc1oncc1C(=O)Nc1ccc(C(F)(F)F)cc1` displayed an IC50 of over 100 µM. The same measure, in the same setting: in the case of `Cc1nocc1C(=O)Nc1ccc(C(F)(F)F)cc1` it was over 100 µM; in that of `Cc1n[nH]cc1C(=O)Nc1ccc(C(F)(F)F)cc1`, over 100 µM; in that of `Cc1noc(C)c1C(=O)Nc1ccc(C(F)(F)F)cc1`, over 100 µM.

The next assay deals with EGFR (human) (UniProt P00533).
Sequence of EGFR (human) (P00533 whole entry, looked up): as the sequence (P00533 whole entry, looked up) above
Assay: not given
The note with it: a431.
The molecule `COc1ccc(OC)c(Cc2cc3c(NC4C=C(Br)C=CC4)nc(N)nc3[nH]2)c1` (configuration not stated) came in with an IC50 of over 50 µM.

A further assay concerns the target EGFR (human) (UniProt P00533).
Assay: not given
Conditions: not given
`CN(C)CCCn1c(SSc2c(C(=O)Nc3ccccc3)c3ccccc3n2CCCN(C)C)c(C(=O)Nc2ccccc2)c2ccccc21`: the IC50 stood at 26 µM. In turn, `COC(=O)CCc1c(SSc2c(CCC(=O)OC)c3ccccc3n2C)n(C)c2ccccc12` registered an IC50 of over 100 µM. The same measure, in the same setting: the value for `Cn1c(SSc2c(C(=O)Nc3cccnn3)c3ccccc3n2C)c(C(=O)Nc2cccnc2)c2ccccc21` was over 100 µM; that for `Cn1c(SSc2c(C(=O)Nc3ccccc3)c3cc(C(F)(F)F)ccc3n2C)c(C(=O)Nc2ccccc2)c2cc(C(F)(F)F)ccc21` was over 100 µM.

The next assay deals with ROCK2 (human) (UniProt O75116). Nature of the assay: Assessment of ROCK2 Kinase Activity (Fluorescence Polarization Assay).
Conditions: not given
Take `Cc1ccc(S(=O)(=O)CCOC(=O)c2cccc(-c3cc(C(=O)Nc4ccncc4)ccc3C(C)N)c2)cc1` (configuration not stated): the IC50 fell in the range of 0.1 to 1 µM. In turn, `CCCOC(=O)c1cc(-c2cc(C(=O)Nc3ccncc3)ccc2C(C)N)c[nH]1` (configuration not stated) yielded an IC50 of under 0.1 µM. `COC(=O)c1cc2c(-c3cc(C(=O)Nc4ccncc4)ccc3C(C)N)cccc2[nH]1` (configuration not stated): the IC50 fell in the range of 0.1 to 1 µM. The same measure, in the same setting: the value for `CC(N)c1ccc(C(=O)Nc2ccncc2)cc1-c1cccc(C(=O)OCc2ccncc2)c1` (configuration not stated) was under 0.1 µM.

Another assay deals with EGFR (human) (UniProt P00533).
Assay: not given
The note with it: a431. The source holds these as a separate data set.
With `COCCOc1cc2ncnc(Nc3ccc4[nH]ccc4c3)c2cc1NC(=O)C=C1CCNCC1`, the EC50 stood at 0.013 µM.

`O=C(C=C1CCNC1)Nc1ccc2ncnc(Nc3cccc(Br)c3)c2c1` registered a 50% effective concentration (EC50) of 13 µM. As to `CCOc1cc2ncc(C#N)c(Nc3ccc(OCc4ccccn4)c(Cl)c3)c2cc1NC(=O)C=C1CCNCC1`, the EC50 was 0.16 µM. With `O=C(C=C1CCNCC1)Nc1ccc2ncnc(Nc3ccc4[nH]ccc4c3)c2c1`, the EC50 came to 0.3 µM.

The record behind these values is the Kinase Knowledgebase extract (Sharma et al. 2016).
